# From patent US5559101A, “L-ribofuranosyl nucleosides” (priority 1994, dated 1996)
# Where two headings read alike, the source gives them in different places.
# How the values were obtained:
# [1] = system: HT29 (colon); test: Radiometric growth inhibition of tumor cells, HT29; type: cell-based, human; parameters: % SURVIVAL TUMOR: concentration or dose not given beside the values; settings: for IC50: concentration required to kill 50%
# From the text: (§1) CELL LINES: Eight different established human cell lines CALU (lung), COLO320 (colon), H578St (breast), HT-29 (colon), MCF-7 (breast), OM-1 (colon), SKLU (lung) and SKMES(lung), and two control cell lines (bone marrow and/or fibroblast cells) were utilized. All cell lines were obtained from the Tumor Cloning Laboratory, Institute for Drug Development, Cancer Therapy and Research Center, San Antonio, Tex. All cell lines grew as monolayers in the appropriate culture medium supplemented with heat-inactivated calf serum. All reagents were obtained from Grand Island Biological Co., Grand Island, N.Y.
# (§2) The iv formulations of the compounds of the present invention were prepared with sterile buffered saline and stored at -70° C. until required for testing.
# (§3) Following trypsinization, tumor cells were suspended in tissue culture medium and exposed to the antitumor agents continuously at three different concentrations: 10, 1 and 0.1 μg/ml.
# (§4) RADIOMETRIC MEASUREMENT OF GROWTH INHIBITION: Growth inhibition was assessed with the BACTEC System 460 (Johnston Laboratories, Towson, Md.) after addition of the antitumor agent to the cell in the respective growth medium containing ^14 C-glucose at a final concentration of 2 μCi/ml.
# (§5) Two mls of the tumor cell suspension containing radioactive glucose were seeded into sterile, disposable 15 ml vials by injection through self-sealing rubber-aluminum caps. […] The seeded vials were then incubated at 37° C. Measurement of the release of ^14 CO2 resulting from the metabolism of ^14 C-glucose were performed on days 6, 9, 12 and 15 in the BACTEC instrument. This instrument flushes the ^14 CO2 containing air out of the vials into an ionization chamber that converts dpm to growth index values. […] Each data point represents triplicate values.
# (§6) All compounds were dosed on an equimilimolar basis.
# [2] = system: MCF-7 (breast); test: Radiometric growth inhibition of tumor cells, MCF-7; type: cell-based, human; parameters: % SURVIVAL TUMOR: concentration or dose not given beside the values; settings: MCF-7; for IC50: concentration required to kill 50%; for % SURVIVAL TUMOR: continuous exposure
# From the text: as §1, §2, §3, §4, §5, §6
# [3] = system: OM-1 (colon); test: Radiometric growth inhibition of tumor cells, OM-1; type: cell-based, human; parameters: % SURVIVAL TUMOR: concentration or dose not given beside the values; settings: for IC50: concentration required to kill 50%
# From the text: as §1, §2, §3, §4, §5, §6
# [4] = system: SKLU (lung); test: Radiometric growth inhibition of tumor cells, SKLU; type: cell-based, human; parameters: % SURVIVAL TUMOR: concentration or dose not given beside the values; settings: for IC50: concentration required to kill 50%
# From the text: as §1, §2, §3, §4, §5, §6
# [5] = In vitro survival of bone marrow control cells (radiometric BACTEC); type: cell-based; parameters: concentration or dose not given beside the values
# From the text: as §1, §2, §3, §4, §5, §6
# [6] = system: CALU (lung); test: Radiometric growth inhibition of tumor cells, CALU; type: cell-based, human; parameters: % SURVIVAL TUMOR: concentration or dose not given beside the values; settings: for IC50: Homo sapiens, concentration required to kill 50%, read-out: IC 50
# From the text: as §1, §2, §3, §4, §5, §6
# [7] = system: COLO320 (colon); test: Radiometric growth inhibition of tumor cells, COLO320; type: cell-based, human; settings: for IC50: Homo sapiens, COLO 320, COLO320, concentration required to kill 50%, read-out: IC 50; for % SURVIVAL TUMOR: human, colo320 colon tumor cells
# From the text: as §1, §2, §3, §4, §5, §6
# [8] = bone marrow control cells, continuous exposure, read-out: % SURVIVAL BONE MARROW
# [9] = Homo sapiens, HT-29, HT29, read-out: IC 50
# [10] = Homo sapiens, MCF7, read-out: IC 50
# [11] = Homo sapiens, OM-1, read-out: IC 50
# [12] = Homo sapiens, SKLU, read-out: IC 50
compound,measurement,setting,value
2'-Deoxy-β-L-5-fluorouridine,IC50,[1]; HT29,85.2
same,IC50,[2],16.6
same,IC50,[3]; OM-1,62.9
same,IC50,[4]; SKLU,32.5
"O=C(OC[C@@H]1O[C@@H](n2ccc(=S)[nH]c2=O)[C@@H](OC(=O)c2ccccc2)[C@H]1OC(=O)c1ccccc1)c1ccccc1 [1-(2,3,5-Tri-O-benzoyl-α-L-ribofuranosyl)-4-thiouracil]",viability,[5]; [8],85.9%
same,% SURVIVAL TUMOR,"[1]; HT29, continuous exposure",75%
same,IC50,[1]; [9],> 10 µg/mL
"O=c1ccn([C@@H]2CC[C@H](CO)O2)c(=O)[nH]1 [2',3'-β-L-dideoxy ribofuranosyl uracil, 2',3'-Dideoxy-β-L-uridine]",viability,[5]; bone marrow cells,79.8%
same,% SURVIVAL TUMOR,"[6]; CALU, continuous exposure",0.4%
same,IC50,[6]; CALU,0.623 µg/mL
O=c1[nH]c(=O)n([C@@H]2C[C@@H](O)[C@H](CO)O2)cc1F [2'-Deoxy-β-L-5-fluorouridine],viability,[5]; bone marrow cells,109%
same,IC50,[7],6.56 µg/mL
same,% SURVIVAL TUMOR,[7],19.6%
same,% SURVIVAL TUMOR,"[1]; HT29, continuous exposure",42.5%
same,IC50,[1]; [9],8.46 µg/mL
same,IC50,[2]; [10],60.7 µg/mL
same,% SURVIVAL TUMOR,[2],86.9%
same,IC50,[3]; [11],56.1 µg/mL
same,% SURVIVAL TUMOR,"[3]; human, om-1 colon tumor cells",85.2%
same,IC50,[4]; [12],59.9 µg/mL
same,% SURVIVAL TUMOR,"[4]; human, sklu lung tumor cells",86.2%
Nc1ncnc2c1ncn2[C@@H]1C[C@@H](O)[C@H](CO)O1 [2'-β-L-deoxy ribofuranosyl adenine],viability,[5]; bone marrow cells,64.9%
same,IC50,[6]; CALU,0.696 µg/mL
same,% SURVIVAL TUMOR,"[6]; human, calu lung tumor cells",28.9%
"O=c1[nH]cnc2c1ncn2[C@@H]1C[C@@H](O)[C@H](CO)O1 [2'-β-L-deoxy ribofuranosyl hypoxanthine, 2'-Deoxy-β-L-inosine]",viability,[5]; bone marrow cells,110%
same,IC50,[3]; [11],> 10 µg/mL
same,% SURVIVAL TUMOR,"[3]; human, om-1 colon tumor cells",83.1%
"Cc1cn([C@@H]2C[C@@H](O)[C@H](CO)O2)c(=O)[nH]c1=O [2'-β-L-deoxy ribofuranosyl thymine, 2'-Deoxy-β-L-thymidine]",viability,[5]; bone marrow cells,159%
same,IC50,[7],57.4 µg/mL
same,% SURVIVAL TUMOR,[7],67.0%
same,IC50,[1]; [9],30.4 µg/mL
same,% SURVIVAL TUMOR,"[1]; human, ht29 colon tumor cells",72.2%
same,IC50,[3]; [11],6.5 µg/mL
same,% SURVIVAL TUMOR,"[3]; human, om-1 colon tumor cells",37.6%
same,IC50,[4]; [12],38.2 µg/mL
same,% SURVIVAL TUMOR,"[4]; human, sklu lung tumor cells",72.4%
"O=c1[nH]c(=S)ccn1[C@@H]1C[C@@H](O)[C@H](CO)O1 [2'-β-L-deoxy ribofuranosyl-4-thiouracil, 2'-Deoxy-β-L-4-thiouridine]",viability,[5]; [8],98.2%
same,IC50,[3]; [11],34.3 µg/mL
same,% SURVIVAL TUMOR,"[3]; OM-1, continuous exposure",82.3%
same,IC50,[4]; [12],> 10 µg/mL
same,% SURVIVAL TUMOR,"[4]; SKLU, continuous exposure",79.4%
"NC1=N[C@@H]2O[C@@H](CO)[C@H](O)[C@@H]2O1 [2-Amino-α-L-ribofurano[1',2':4,5]oxazoline]",viability,[5]; [8],115%
same,IC50,[3]; [11],0.026 µg/mL
same,% SURVIVAL TUMOR,"[3]; OM-1, continuous exposure",2.6%
"NC1=N[C@H]2O[C@@H](CO)[C@H](O)[C@H]2O1 [2-Amino-β-L-arabinofurano[1',2':4,5]oxazoline]",viability,[5]; [8],110%
same,% SURVIVAL TUMOR,"[6]; CALU, continuous exposure",89%
same,IC50,[6]; CALU,44.6 µg/mL
same,IC50,[2]; [10],187 µg/mL
same,% SURVIVAL TUMOR,[2],88.8%
same,IC50,[3]; [11],5 µg/mL
same,% SURVIVAL TUMOR,"[3]; OM-1, continuous exposure",41.3%
"O=C(OC[C@@H]1O[C@H](n2ccc(=S)[nH]c2=O)C[C@H]1OC(=O)c1ccccc1)c1ccccc1 [3',5'-Di-O-benzoyl-2'deoxy-4-thio β-L-uridine]",viability,[5]; [8],102%
same,IC50,[2]; [10],> 10 µg/mL
same,% SURVIVAL TUMOR,[2],84.5%
same,IC50,[3]; [11],0.98 µg/mL
same,% SURVIVAL TUMOR,"[3]; OM-1, continuous exposure",35.7%
same,IC50,[4]; [12],88.7 µg/mL
same,% SURVIVAL TUMOR,"[4]; SKLU, continuous exposure",77.7%
